Laboratory results from US20200405699A1, “TREATING SICKLE CELL DISEASE WITH A PYRUVATE KINASE R ACTIVATING COMPOUND” (FORMA Therapeutics, Inc., priority 2018, published 2020).

Assays:
Assay type in all cases: biochemical
PKR-R510Q = PKR-R510Q (Homo sapiens, UniProt P30613, R510Q); experiment: Luminescence Assay (Kinase Glo Plus), PKR R510Q; details: read-out: AC50 (PKRR510Q)
Experimental: (§1) For each tested compound, the ability to activate PKR was determined using the following Luminescence Assay. The effect of phosphorylation of adenosine-5′-diphosphate (ADP) by PKR is determined by the Kinase Glo Plus Assay (Promega) in the presence or absence of FBP (D-fructose-1,6-diphosphate; BOC Sciences, CAS: 81028-91-3) as follows. Unless otherwise indicated, all reagents are purchased from Sigma-Aldrich. All reagents are prepared in buffer containing 50 mM Tris-HCl, 100 mM KCl, 5 mM MgCl2, and 0.01% Triton X100, 0.03% BSA, and 1 mM DTT. Enzyme and PEP (phosphoenolpyruvate) are added at 2× to all wells of an assay-ready plate containing serial dilutions of test compounds or DMSO vehicle. Final enzyme concentrations for PKR(wt), PKR(R510Q), and PKR(G332S) are 0.8 nM, 0.8 nM, and 10 nM respectively. Final PEP concentration is 100 μM. The Enzyme/PEP mixture is incubated with compounds for 30 minutes at RT before the assay is initiated with the addition of 2×ADP and KinaseGloPlus. Final concentration of ADP is 100 μM. […] For assays containing FBP, that reagent is added at 30 μM upon reaction initiation. Reactions are allowed to progress for 45 minutes at RT until luminescence is recorded by the BMG PHERAstar FS Multilabel Reader. The compound is tested in triplicate at concentrations ranging from 42.5 μM to 2.2 nM in 0.83% DMSO. AC50 measurements were obtained by the standard four parameter fit algorithm of ActivityBase XE Runner (max, min, slope and AC50). The AC50 value for a compound is the concentration (μM) at which the activity along the four parameter logistic curve fit is halfway between minimum and maximum activity.
(§2) As set forth in Tables 2 and 3 below and in FIG. 1, AC50 values are defined as follows: ≤0.1 μM (+++); >0.1 μM and ≤1.0 μM (++); >1.0 μM and ≤40 μM (+); >40 μM (0).

PKR(wt) = PKR(wt) (Homo sapiens, UniProt P30613); experiment: Luminescence Assay (Kinase Glo Plus), PKR wild type
Experimental: as §1, with “AC50 measurements were obtained by the standard four parameter fit algorithm of ActivityBase XE Runner (max, min, slope and AC50). The AC50 value for a compound is the concentration (μM) at which the activity along the four parameter logistic curve fit is halfway between minimum and maximum activity.” left out

PKR(G332S) = PKR(G332S) (Homo sapiens, UniProt P30613, G332S); experiment: Luminescence Assay (Kinase Glo Plus), PKR G332S; details: read-out: AC50 (PKRG332S)
Experimental: as §1, §2

Sequence of PKR-R510Q (P30613 whole entry R510Q): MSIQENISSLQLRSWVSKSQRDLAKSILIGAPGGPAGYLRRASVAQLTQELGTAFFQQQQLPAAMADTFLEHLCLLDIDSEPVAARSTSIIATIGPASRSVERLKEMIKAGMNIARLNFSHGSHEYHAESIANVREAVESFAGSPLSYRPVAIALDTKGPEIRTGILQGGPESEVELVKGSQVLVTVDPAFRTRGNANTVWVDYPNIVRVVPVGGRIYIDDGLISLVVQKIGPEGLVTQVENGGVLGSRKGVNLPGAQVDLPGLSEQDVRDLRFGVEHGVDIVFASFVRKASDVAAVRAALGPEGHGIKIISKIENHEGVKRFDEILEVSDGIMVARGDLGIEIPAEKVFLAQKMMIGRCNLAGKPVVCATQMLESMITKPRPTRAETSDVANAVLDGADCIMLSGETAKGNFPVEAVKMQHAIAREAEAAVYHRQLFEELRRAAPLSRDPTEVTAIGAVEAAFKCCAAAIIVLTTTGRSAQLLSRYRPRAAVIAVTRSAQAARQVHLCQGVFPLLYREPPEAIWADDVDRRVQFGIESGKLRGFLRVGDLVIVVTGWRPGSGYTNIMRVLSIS
Sequence of PKR(wt) (P30613 whole entry): as the sequence (P30613 whole entry R510Q) above, with Q510R counted along it
Sequence of PKR(G332S) (P30613 whole entry G332S): as the sequence (P30613 whole entry R510Q) above, with G332S, Q510R counted along it

AC50 (PKR-R510Q): 1 to 40 µM
AC50 (PKR(wt)): 1 to 40 µM
AC50 (PKR(G332S)): 1 to 40 µM
SMILES: O=C([C@@H](CO)c1ccccc1)N1CC2=C(C1)CN(S(=O)(=O)c1cnc3c(c1)OCCO3)C2 (single isomer, unassigned) [Compound 2]
